Experimental data taken from patent US20230020329A1, “Annelated 9-hydroxy-1,8-dioxo-1,3,4,8-tetrahydro-2H-pyrido[1,2-a]pyrazine-7-carboxamides as HIV integrase inhibitors, methods of preparation and application thereof” (priority 2019, published 2023).

What follows are molecules tested on HIV-1 (IIIB strain) (assay: Anti-HIV cytoprotection assay (XTT), HIV-1 IIIB in CEM-SS cells). Conditions: Human immunodeficiency virus 1, IIIB, CEM-SS, CEM-SS cell line; read-out: Inhibitory activity (EC50) against HIV-1 (IIIB strain).
Assay type: cell-based
Source text: a) Inhibitory Activity of the Lymphocytropic Virus Strain HIV-1 (IIIB) in the CEM-SS Cell Line.
The evaluation was done by ImQuest BioSciences, Inc. (Frederick, Md., USA). CEM-SS cells [Foley G. E. et al. Continuous Culture of Human Lymphoblasts from Peripheral Blood of a Child with Acute Leukemia. Cancer 1965, 18, 522-529] obtained through the NIH AIDS Research and Reference Reagent Program (Manassas, Va., USA) were passaged in T-75 flasks prior to use cell culture medium consisting of RPMI1640 medium (Lonza; Walkersville, Md., USA) supplemented with 10% heat inactivated fetal bovine serum (Gibco; Grand Island, N.Y.), […] L-glutamine (Lonza), […] penicillin (Lonza) and […] streptomycin (Lonza) for antiviral analysis. The CEM-SS cells were kept in RPMI 140 medium supplemented with 10% heat inactivated bovine fetal serum, 2 mM glutamine, 100 U/ml penicillin, and 100 μg/ml streptomycin.
A lymphocytropic HIV-1 IIIB strain [Popovic, M. et al. Detection, isolation, and continuous production of cytopathic retroviruses (HTLV-III) from patients with AIDS and pre-AIDS. Science. 1984, 224 (4648), 497-500] was chosen for a virus to be analyzed. The virus was obtained through the NIH AIDS Research and Reference Reagents Program and grown in CEM-SS cells to produce a stock virus pool. A pre-titrated aliquot of the virus was removed from the freezer (−80° C.) and allowed to slowly thaw to room temperature in a biological safety cabinet. The virus was diluted in a tissue culture medium so that the amount of virus added in 50 μl per well was sufficient to kill 85 to 95% of the cells 6 days after infection. HIV-1 IIIB was grown and titrated in CEM-SS cells. The inhibitory effect of […] was evaluated in CEM-SS cells as described earlier [Nara, P. L. at al. Simple, rapid, quantitative, syncytium-forming microassay for the detection of human immunodeficiency virus neutralizing antibody. AIDS Res. Hum. Retroviruses 1987, 3, 283-302.] in microtiter plate anti-HIV assays to quantitatively assess the ability of a compound to inhibit HIV-induced cell death. Quantification was carried out using 2,3-bis-(2-methoxy-4-nitro-5-[…])-(2H)-tetrazolium-5-carboxanilide (XTT) tetrazolium, which is metabolized to a stained formazan product through viable […] The compounds given in Table 1 were dissolved at 10 μM in DMSO and stored at −20° C.
Test materials were evaluated using antiviral assays in triplicate in concentrations of 30 and 10 nM. The compounds shown in table 1 were dissolved at 10 μM in DMSO and stored at −20° C. […] Sixty nanomolar concentrations of each compound (2 times that of the test concentration in the well) were prepared by diluting 10 μM DMSO stock 1:100 in cell culture medium (10 μl of compound added to 990 μl of the medium) followed by 1:10 dilution (10 μl of the compound was added to 90 μl of the medium), then 6 μl was added to 994 μl of the medium; […] μl was added to a 96-well microtiter plate in triplicate to ensure efficacy and one colorimetric well. Twenty nanomolar concentrations of each compound (twice as much as the test concentration in the well) were prepared by diluting 10 μM DMSO with the original 1:100 in cell culture medium (10 μl of the compound added to 990 μl of the medium) followed by diluting […] (10 μl of the compound was added to 900 μl of the medium), then 20 μl was added to 980 μl of the medium; 100 μl was added to a 96-well microtiter plate in triplicate to ensure efficacy and one colorimetric well.
Azidothymidine (AZT) was purchased from Sigma Aldrich (USA) and evaluated as a positive control compound in an antiviral assay using a six-concentration reaction curve on each assay plate.
Test compounds were initially evaluated for HIV-1 IIIB strain in CEM-SS cells at test concentrations of 30 and 10 nM. […]

Row | SMILES | EC50
1 | C[C@H]1CO[C@@H]2Cn3cc(C(=O)NCc4ccc5sccc5c4)c(=O)c(O)c3C(=O)N12 [Compound 1.1.31, (3S,11aR)-N-(1-benzothien-5-ylmethyl)-6-hydroxy-3-methyl-5,7-dioxo-2,3,5,7,11,11a-hexahydro[1,3]oxazolo[3,2-a]pyrido[1,2-d]pyrazine-8-carboxamide] | 2 to 10 nM
2 | Cc1nn2cc(CNC(=O)c3cn4c(c(O)c3=O)C(=O)N3[C@@H](C)CO[C@@H]3C4)nc2s1 [Compound 1.1.30, (3S,11aR)-6-hydroxy-3-methyl-N-[(2-methylimidazo[2,1-b][1,3,4]thiadiazol-6-yl)methyl]-5,7-dioxo-2,3,5,7,11,11a-hexahydro[1,3]oxazolo[3,2-a]pyrido[1,2-d]pyrazine-8-carboxamide] | > 30 nM
3 | Cc1nonc1CNC(=O)c1cn2c(c(O)c1=O)C(=O)N1[C@@H](C)CO[C@@H]1C2 [Compound 1.1.12, (3S,11aR)-6-hydroxy-3-methyl-N-[(4-methyl-1,2,5-oxadiazol-3-yl)methyl]-5,7-dioxo-2,3,5,7,11,11a-hexahydro[1,3]oxazolo[3,2-a]pyrido[1,2-d]pyrazine-8-carboxamide] | 10 to 30 nM
4 | C[C@H]1CO[C@@H]2Cn3cc(C(=O)NCc4cc5c(cc4Br)OCO5)c(=O)c(O)c3C(=O)N12 [Compound 1.1.35, (3S,11aR)-N-[(6-bromo-1,3-benzodioxol-5-yl)methyl]-6-hydroxy-3-methyl-5,7-dioxo-2,3,5,7,11,11a-hexahydro[1,3]oxazolo[3,2-a]pyrido[1,2-d]pyrazine-8-carboxamide] | < 2 nM
5 | C[C@H]1CO[C@@H]2Cn3cc(C(=O)NCc4ccccn4)c(=O)c(O)c3C(=O)N12 [Compound 1.1.15, (3S,11aR)-6-hydroxy-3-methyl-N-(pyridyl-2-ylmethyl)-5,7-dioxo-2,3,5,7,11,11a-hexahydro[1,3]oxazolo[3,2-a]pyrido[1,2-d]pyrazine-8-carboxamide] | 10 to 30 nM
6 | C[C@H]1CO[C@@H]2Cn3cc(C(=O)NCc4ccc5c(c4)OCO5)c(=O)c(O)c3C(=O)N12 [Compound 1.1.34, (3S,11aR)-N-(1,3-benzodioxol-5-ylmethyl)-6-hydroxy-3-methyl-5,7-dioxo-2,3,5,7,11,11a-hexahydro[1,3]oxazolo[3,2-a]pyrido[1,2-d]pyrazine-8-carboxamide] | 2 to 10 nM
7 | C[C@H]1CO[C@@H]2Cn3cc(C(=O)NCc4cnccn4)c(=O)c(O)c3C(=O)N12 [Compound 1.1.27, (3S,11aR)-6-hydroxy-3-methyl-N-(pyrazin-2-ylmethyl)-5,7-dioxo-2,3,5,7,11,11a-hexahydro[1,3]oxazolo[3,2-a]pyrido[1,2-d]pyrazine-8-carboxamide] | > 30 nM

More lines, now with the values ahead:

Row | EC50 | SMILES
8 | ~10 nM | C[C@H]1CO[C@@H]2Cn3cc(C(=O)NCc4cccc5ncccc45)c(=O)c(O)c3C(=O)N12 [Compound 1.1.52, (3S,11aR)-6-hydroxy-3-methyl-N-(quinolin-5-ylmethyl)-5,7-dioxo-2,3,5,7,11,11a-hexahydro[1,3]oxazolo[3,2-a]pyrido[1,2-d]pyrazine-8-carboxamide]
9 | > 30 nM | Cc1nc2cc(CNC(=O)c3cn4c(c(O)c3=O)C(=O)N3[C@@H](C)CO[C@@H]3C4)ccc2n1C [Compound 1.1.64, (3S,11aR)-6-hydroxy-3-methyl-N-[(1,2-dimethyl-1H-benzimidazol-5-yl)methyl]-5,7-dioxo-2,3,5,7,11,11a-hexahydro[1,3]oxazolo[3,2-a]pyrido[1,2-d]pyrazine-8-carboxamide]
10 | < 2 nM | C[C@H]1CO[C@@H]2Cn3cc(C(=O)NCc4ccnc5ccccc45)c(=O)c(O)c3C(=O)N12 [Compound 1.1.65, (3S,11aR)-6-hydroxy-3-methyl-N-(quinolin-4-ylmethyl)-5,7-dioxo-2,3,5,7,11,11a-hexahydro[1,3]oxazolo[3,2-a]pyrido[1,2-d]pyrazine-8-carboxamide]
11 | > 30 nM | Cc1ccc2[nH]c(CNC(=O)c3cn4c(c(O)c3=O)C(=O)N3[C@@H](C)CO[C@@H]3C4)nc2c1 [Compound 1.1.40, (3S,11aR)-6-hydroxy-3-methyl-N-[(5-methyl-1H-benzimidazol-2-yl)methyl]-5,7-dioxo-2,3,5,7,11,11a-hexahydro[1,3]oxazolo[3,2-a]pyrido[1,2-d]pyrazine-8-carboxamide]
12 | 10 to 30 nM | C[C@H]1CO[C@@H]2Cn3cc(C(=O)NCc4nnc5ccc(Cl)nn45)c(=O)c(O)c3C(=O)N12 [Compound 1.1.60, (3S,11aR)-6-hydroxy-3-methyl-N-[(6-chloro[1,2,4]triazolo[4,3-b]pyridazin-3-yl)methyl]-5,7-dioxo-2,3,5,7,11,11a-hexahydro[1,3]oxazolo[3,2-a]pyrido[1,2-d]pyrazine-8-carboxamide]
13 | 2 to 10 nM | C[C@@H]1CCO[C@H]2Cn3cc(C(=O)NCc4c(F)cncc4F)c(=O)c(O)c3C(=O)N12 [Compound 1.2.4, (4R,12aS)-7-hydroxy-N-[(3,5-difluoropyridin-4-yl)methyl]-4-methyl-6,8-dioxo-3,4,6,8,12,12a-hexahydro-2H-pyrido[1′,2′:4,5]pyrazino[2,1-b][1,3]oxazine-9-carboxamide]
14 | > 30 nM | C[C@H]1CO[C@@H]2Cn3cc(C(=O)NCc4cn5cccnc5n4)c(=O)c(O)c3C(=O)N12 [Compound 1.1.58, (3S,11aR)-6-hydroxy-N-(imidazo[1,2-a]pyrimidin-2-ylmethyl)-3-methyl-5,7-dioxo-2,3,5,7,11,11a-hexahydro[1,3]oxazolo[3,2-a]pyrido[1,2-d]pyrazine-8-carboxamide]
15 | 2 to 10 nM | C[C@@H]1CO[C@@]23CCC[C@@H]2n2cc(C(=O)NCc4ccc(F)nc4F)c(=O)c(O)c2C(=O)N13 [Compound 2.1.1, (3aS,6R,13aS)-9-hydroxy-N-[(2,6-difluoropyridin-3-yl)methyl]-6-methyl-8,10-dioxo-1,2,3,5,6,8,10,13a-octahydrocyclopenta[b][1,3]oxazolo[3,2-a]pyrido[1,2-d]pyrazine-11-carboxamide]
16 | 2 to 10 nM | C[C@H]1CO[C@@]23CCC[C@@H]2n2cc(C(=O)NCc4c(F)cc(F)nc4F)c(=O)c(O)c2C(=O)N13 [Compound 2.2.3, (3aS,6S,13aS)-9-hydroxy-6-methyl-N-[(2,4,6-trifluoropyridin-3-yl)methyl]-8,10-dioxo-1,2,3,5,6,8,10,13a-octahydrocyclopenta[b][1,3]oxazolo[3,2-a]pyrido[1,2-d]pyrazine-11-carboxamide]
